Each structure is given as a SMILES string. Activity calls are given as the source filed them. How the calls were made is not given here.

For this data set, the system named is CCRIS mutagenicity, Ames/micronucleus/aberration tests. In words: CCRIS mutagenicity studies.
Setting [1] is: Test System: AMES SALMONELLA TYPHIMURIUM, Strain/Indicator: TA98, Metabolic Activation: NONE, Method: STANDARD PLATE.
Setting [2] is: Test System: AMES SALMONELLA TYPHIMURIUM, Strain/Indicator: TA98, Metabolic Activation: RAT, LIVER, S-9, AROCLOR 1254, Method: STANDARD PLATE.

Consider `O=C1c2ccccc2C(=O)c2ccccc21`, for which the mutagenic call is, setting by setting: (End Point: IN VIVO MICRONUCLEUS, Test System: BONE MARROW POLYCHROMATIC ERYTHROCYTES, Species: MOUSE, Strain/Sex: B6C3F1/MALE, Route: IP INJECTION IN CORN OIL) “inactive; negative”; (End Point: IN VIVO MICRONUCLEUS, Test System: PERIPHERAL BLOOD ERYTHROCYTES, Species: MOUSE, Strain/Sex: B6C3F1/MALE, FEMALE, Route: DIET) “active; positive (at highest dose); (99.8% pure)”; (Test System: AMES SALMONELLA TYPHIMURIUM, Strain/Indicator: TA97, Metabolic Activation: NONE, Method: STANDARD PLATE) “inactive; negative”; (Test System: AMES SALMONELLA TYPHIMURIUM, Strain/Indicator: TA97, Metabolic Activation: RAT, LIVER, S-9, PCB, Method: STANDARD PLATE) “inactive; negative”; (Test System: AMES SALMONELLA TYPHIMURIUM, Strain/Indicator: TA98, Metabolic Activation: HAMSTER, LIVER, S-9, AROCLOR 1254, Method: STANDARD PLATE) “inactive; negative”; under setting [1], “inactive; negative”. Further, the mutagenic call is “inactive; negative” (Test System: AMES SALMONELLA TYPHIMURIUM, Strain/Indicator: TA98, Metabolic Activation: RAT LIVER S-9, AROCLOR, Method: STANDARD PLATE); “inactive; negative” (Test System: AMES SALMONELLA TYPHIMURIUM, Strain/Indicator: TA98, Metabolic Activation: RAT LIVER S-9, PHENOBARBITAL AND BETA-NAPHTHOFLAVONE (30%), Method: PREINCUBATION); “inactive; negative” (Test System: AMES SALMONELLA TYPHIMURIUM, Strain/Indicator: TA98, Metabolic Activation: RAT LIVER S-9, PHENOBARBITAL AND BETA-NAPHTHOFLAVONE, Method: PREINCUBATION); “inactive; negative; 99.8% pure” (Test System: AMES SALMONELLA TYPHIMURIUM, Strain/Indicator: TA98, Metabolic Activation: RAT, LIVER S-9, AROCLOR 1254 (10%, 30%), Method: PREINCUBATION); “inactive; negative” under setting [2]; “inactive; negative” (Test System: AMES SALMONELLA TYPHIMURIUM, Strain/Indicator: TA98, Metabolic Activation: RAT, LIVER, S-9, PCB, Method: STANDARD PLATE). Besides, the mutagenic call reads like this: (Test System: AMES SALMONELLA TYPHIMURIUM, Strain/Indicator: TA100, Metabolic Activation: HAMSTER, LIVER, S-9, AROCLOR 1254, Method: STANDARD PLATE) “inactive; negative”; (Test System: AMES SALMONELLA TYPHIMURIUM, Strain/Indicator: TA100, Metabolic Activation: NONE, Method: STANDARD PLATE) “inactive; negative”; (Test System: AMES SALMONELLA TYPHIMURIUM, Strain/Indicator: TA100, Metabolic Activation: RAT LIVER S-9, AROCLOR, Method: STANDARD PLATE) “inactive; negative”; (Test System: AMES SALMONELLA TYPHIMURIUM, Strain/Indicator: TA100, Metabolic Activation: RAT LIVER S-9, PHENOBARBITAL AND BETA-NAPHTHOFLAVONE (30%), Method: PREINCUBATION) “inactive; negative”; (Test System: AMES SALMONELLA TYPHIMURIUM, Strain/Indicator: TA100, Metabolic Activation: RAT LIVER S-9, PHENOBARBITAL AND BETA-NAPHTHOFLAVONE, Method: PREINCUBATION) “inactive; negative”; (Test System: AMES SALMONELLA TYPHIMURIUM, Strain/Indicator: TA100, Metabolic Activation: RAT, LIVER S-9, AROCLOR 1254 (10%, 30%), Method: PREINCUBATION) “inactive; negative; 99.8% pure”. Further, the mutagenic call (Test System: AMES SALMONELLA TYPHIMURIUM, Strain/Indicator: TA100, Metabolic Activation: RAT, LIVER, S-9, AROCLOR 1254, Method: STANDARD PLATE) is “inactive; negative”; the mutagenic call (Test System: AMES SALMONELLA TYPHIMURIUM, Strain/Indicator: TA100, Metabolic Activation: RAT, LIVER, S-9, PCB, Method: STANDARD PLATE) is “inactive; negative”; the mutagenic call (Test System: AMES SALMONELLA TYPHIMURIUM, Strain/Indicator: TA102, Metabolic Activation: NONE, Method: PREINCUBATION) is “inactive; negative; 100% pure”; the mutagenic call (Test System: AMES SALMONELLA TYPHIMURIUM, Strain/Indicator: TA102, Metabolic Activation: RAT, LIVER, S-9, AROCLOR 1254 (10%), Method: PREINCUBATION) was “inactive; negative; 100% pure”; the mutagenic call (Test System: AMES SALMONELLA TYPHIMURIUM, Strain/Indicator: TA102, Metabolic Activation: RAT, LIVER, S-9, AROCLOR 1254, Method: STANDARD PLATE) was “inactive; negative”; the mutagenic call (Test System: AMES SALMONELLA TYPHIMURIUM, Strain/Indicator: TA1535, Metabolic Activation: HAMSTER, LIVER, S-9, AROCLOR 1254, Method: STANDARD PLATE) was “inactive; negative”. The mutagenic call reads like this: (Test System: AMES SALMONELLA TYPHIMURIUM, Strain/Indicator: TA1535, Metabolic Activation: NONE, Method: PREINCUBATION) “inactive; negative”; (Test System: AMES SALMONELLA TYPHIMURIUM, Strain/Indicator: TA1535, Metabolic Activation: NONE, Method: STANDARD PLATE) “inactive; negative”; (Test System: AMES SALMONELLA TYPHIMURIUM, Strain/Indicator: TA1535, Metabolic Activation: RAT LIVER S-9, AROCLOR, Method: STANDARD PLATE) “inactive; negative”; (Test System: AMES SALMONELLA TYPHIMURIUM, Strain/Indicator: TA1535, Metabolic Activation: RAT LIVER S-9, PHENOBARBITAL AND BETA-NAPHTHOFLAVONE (30%), Method: PREINCUBATION) “inactive; negative”; (Test System: AMES SALMONELLA TYPHIMURIUM, Strain/Indicator: TA1535, Metabolic Activation: RAT LIVER S-9, PHENOBARBITAL AND BETA-NAPHTHOFLAVONE, Method: PREINCUBATION) “inactive; negative”; (Test System: AMES SALMONELLA TYPHIMURIUM, Strain/Indicator: TA1535, Metabolic Activation: RAT, LIVER, S-9, AROCLOR 1254, Method: STANDARD PLATE) “inactive; negative”. Further, the mutagenic call is, setting by setting: (Test System: AMES SALMONELLA TYPHIMURIUM, Strain/Indicator: TA1537, Metabolic Activation: HAMSTER, LIVER, S-9, AROCLOR 1254, Method: STANDARD PLATE) “inactive; negative”; (Test System: AMES SALMONELLA TYPHIMURIUM, Strain/Indicator: TA1537, Metabolic Activation: NONE, Method: STANDARD PLATE) “inactive; negative”; (Test System: AMES SALMONELLA TYPHIMURIUM, Strain/Indicator: TA1537, Metabolic Activation: RAT LIVER S-9, AROCLOR, Method: STANDARD PLATE) “inactive; negative”; (Test System: AMES SALMONELLA TYPHIMURIUM, Strain/Indicator: TA1537, Metabolic Activation: RAT LIVER S-9, PHENOBARBITAL AND BETA-NAPHTHOFLAVONE (30%), Method: PREINCUBATION) “active; positive”; (Test System: AMES SALMONELLA TYPHIMURIUM, Strain/Indicator: TA1537, Metabolic Activation: RAT LIVER S-9, PHENOBARBITAL AND BETA-NAPHTHOFLAVONE, Method: PREINCUBATION) “inactive; negative”; (Test System: AMES SALMONELLA TYPHIMURIUM, Strain/Indicator: TA1537, Metabolic Activation: RAT, LIVER S-9, AROCLOR 1254 (10%, 30%), Method: PREINCUBATION) “inactive; negative; 99.8% pure”. Moreover, the mutagenic call (Test System: AMES SALMONELLA TYPHIMURIUM, Strain/Indicator: TA1537, Metabolic Activation: RAT, LIVER, S-9, AROCLOR 1254, Method: STANDARD PLATE) was “inactive; negative”; the mutagenic call (Test System: E. COLI, Strain/Indicator: WP2 UVRA, Metabolic Activation: NONE, Method: STANDARD PLATE) was “inactive; negative”; the mutagenic call (Test System: E. COLI, Strain/Indicator: WP2 UVRA, Metabolic Activation: RAT LIVER S-9, AROCLOR, Method: STANDARD PLATE) is “inactive; negative”; the mutagenic call (Test System: E.COLI, Strain/Indicator: WP2UVRA, Metabolic Activation: NONE, Method: PREINCUBATION) is “inactive; negative”; the mutagenic call (Test System: E.COLI, Strain/Indicator: WP2UVRA, Metabolic Activation: RAT LIVER S-9, PHENOBARBITAL AND BETA-NAPHTHOFLAVONE (30%), Method: PREINCUBATION) is “inactive; negative”; the mutagenic call (Test System: E.COLI, Strain/Indicator: WP2UVRA, Metabolic Activation: RAT LIVER S-9, PHENOBARBITAL AND BETA-NAPHTHOFLAVONE, Method: PREINCUBATION) was “inactive; negative”. In addition, the mutagenic call reads like this: (Test System: MOUSE LYMPHOMA, Strain/Indicator: L5178Y (TK+/TK-), Metabolic Activation: NONE, Method: SUSPENSION/PLATE) “inactive; negative”; (Test System: MOUSE LYMPHOMA, Strain/Indicator: L5178Y (TK+/TK-), Metabolic Activation: RAT LIVER S-9, AROCLOR, Method: SUSPENSION/PLATE) “inactive; negative”.

For `O=C(NO)OCc1ccccc1`, the mutagenic call (Test System: E. COLI, Strain/Indicator: WP2 UVRA, Metabolic Activation: NONE, Method: FLUCTUATION TEST) is “active; positive”.

`CC(=O)Nc1ccc2c3c(cccc13)-c1ccc(O)cc1-2`: the mutagenic call reads like this: under setting [1], “active; positive”; under setting [2], “active; positive”.

For the origin of these results see PubChem BioAssay AID1259407 (Chemical Carcinogenesis Research Information System (CCRIS), 2018).
